Data taken from ChEMBL document CHEMBL1134060, “Synthesis and evaluation of hexahydrochrysene and tetrahydrobenzofluorene ligands for the estrogen receptor” (Bioorg Med Chem Lett, 2001).

Tests used:
[1] = molecular target: Estrogen receptor beta (Homo sapiens) (UniProt Q92731); test: Relative binding affinity for human Estrogen receptor beta compared to estradiol (E2)
[2] = molecular target: T1, Estrogen receptor (Homo sapiens) (UniProt P03372); test: Antagonistic effect on 1 nM estradiol induced transcriptional activation in HEC-1 cells expressing estrogen receptor alpha at 10e-7 M; assay type: functional, cell-based
T1 sequence (whole entry): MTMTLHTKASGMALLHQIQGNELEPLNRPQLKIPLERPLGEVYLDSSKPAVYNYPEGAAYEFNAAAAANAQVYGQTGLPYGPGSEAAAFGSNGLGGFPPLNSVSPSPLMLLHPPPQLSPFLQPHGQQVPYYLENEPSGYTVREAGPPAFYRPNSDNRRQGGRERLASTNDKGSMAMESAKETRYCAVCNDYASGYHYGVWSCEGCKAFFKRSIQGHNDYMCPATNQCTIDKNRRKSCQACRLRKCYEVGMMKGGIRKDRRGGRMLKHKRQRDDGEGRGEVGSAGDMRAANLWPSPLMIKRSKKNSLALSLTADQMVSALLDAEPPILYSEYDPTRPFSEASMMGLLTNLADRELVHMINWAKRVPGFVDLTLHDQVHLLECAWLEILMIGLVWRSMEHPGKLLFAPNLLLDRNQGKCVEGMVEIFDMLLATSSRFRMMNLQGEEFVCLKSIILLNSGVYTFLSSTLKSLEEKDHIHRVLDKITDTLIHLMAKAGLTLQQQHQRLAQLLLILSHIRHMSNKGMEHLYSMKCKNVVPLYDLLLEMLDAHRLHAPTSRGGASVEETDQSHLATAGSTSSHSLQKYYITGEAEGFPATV

[3] = molecular target: Estrogen receptor beta (Homo sapiens) (UniProt Q92731); test: Transcriptional activation in human endometrial carcinoma (HEC-1) cells expressing estrogen receptor beta at 10e-6 M; assay type: functional
[4] = molecular target: Estrogen receptor beta (Homo sapiens) (UniProt Q92731); test: Transcriptional activation in human endometrial carcinoma (HEC-1) cells expressing estrogen receptor beta at 10e-9 M; assay type: functional
[5] = molecular target: Estrogen receptor beta (Homo sapiens) (UniProt Q92731); test: Antagonistic effect on 1 nM estradiol induced transcriptional activation in HEC-1 cells expressing estrogen receptor beta at 10e-6 M; assay type: functional, cell-based
[6] = molecular target: Estrogen receptor beta (Homo sapiens) (UniProt Q92731); test: Antagonistic effect on 1 nM estradiol induced transcriptional activation in HEC-1 cells expressing estrogen receptor beta at 10e-7 M; assay type: functional, cell-based
[7] = molecular target: Estrogen receptor beta (Homo sapiens) (UniProt Q92731); test: Antagonistic effect on 1 nM estradiol induced transcriptional activation in HEC-1 cells expressing estrogen receptor beta at 10e-8 M; assay type: functional, cell-based
[8] = molecular target: T1, Estrogen receptor (Homo sapiens); test: Antagonistic effect on 1 nM estradiol induced transcriptional activation in HEC-1 cells expressing estrogen receptor alpha at 10e-6 M; assay type: functional, cell-based
[9] = molecular target: Estrogen receptor beta (Homo sapiens) (UniProt Q92731); test: Antagonistic effect on 1 nM estradiol induced transcriptional activation in HEC-1 cells expressing estrogen receptor beta at 10e-9 M; assay type: functional, cell-based

Sequence of Estrogen receptor beta (Homo sapiens) (Q92731 whole entry): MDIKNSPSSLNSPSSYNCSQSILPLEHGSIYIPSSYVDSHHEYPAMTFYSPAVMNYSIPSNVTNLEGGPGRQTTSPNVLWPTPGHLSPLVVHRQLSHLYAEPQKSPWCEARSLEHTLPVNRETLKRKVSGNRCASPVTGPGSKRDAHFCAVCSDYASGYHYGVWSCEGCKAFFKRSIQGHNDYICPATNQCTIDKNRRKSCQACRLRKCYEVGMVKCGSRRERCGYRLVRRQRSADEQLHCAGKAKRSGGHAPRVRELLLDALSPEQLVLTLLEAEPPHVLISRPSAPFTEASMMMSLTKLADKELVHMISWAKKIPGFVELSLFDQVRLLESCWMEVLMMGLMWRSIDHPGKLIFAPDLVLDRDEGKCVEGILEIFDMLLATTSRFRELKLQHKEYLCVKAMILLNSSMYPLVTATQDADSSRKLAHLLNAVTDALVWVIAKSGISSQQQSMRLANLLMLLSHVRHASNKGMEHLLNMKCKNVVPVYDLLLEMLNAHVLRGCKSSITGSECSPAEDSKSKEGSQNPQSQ

SMILES | RBA [1] | further results
Oc1ccc2c(c1)CC[C@H]1c3ccc(O)cc3CC[C@@H]21 | 130% | –
Oc1ccc2c(c1)CC[C@@H]1c3ccc(O)cc3[C@H](c3ccc(OCCN4CCCCC4)cc3)[C@H]21 | 10% | Response [2]: 10%; Response [3]: 5%; Response [4]: 70%; Response [5]: 5%; Response [6]: 15%; Response [7]: 30%
Oc1ccc2c(c1)CC[C@@H]1c3ccc(O)cc3C[C@H](c3ccc(OCCN4CCCCC4)cc3)[C@H]21 | 0.06% | Response [8]: 25%; Response [6]: 104%; Response [7]: 105%; Response [9]: 5%
CCC1Cc2cc(O)ccc2C2C(CC)Cc3cc(O)ccc3C12 (stereo unspecified) | 16% | –
CCC1c2cc(O)ccc2[C@H]2CCc3cc(O)ccc3[C@@H]12 (stereo in doubt; 17b) | 280% | –
CCC1c2cc(O)ccc2[C@H]2CCc3cc(O)ccc3[C@@H]12 (stereo in doubt; 17a) | 300% | –
Oc1ccc2c(c1)CCC1=C2CCc2cc(O)ccc21 | 6.5% | –
Oc1ccc2c(c1)C[C@@H]1c3ccc(O)cc3CC[C@H]21 | 63% | –
CC[C@@H]1Cc2cc(O)ccc2C2=C1c1ccc(O)cc1C[C@H]2CC | 144% | –
Oc1ccc2c(c1)CC[C@@H]1c3ccc(O)cc3CC[C@H]21 | 71% | –
O=C1c2cc(O)ccc2[C@H]2CCc3cc(O)ccc3[C@@H]12 | 2% | –
